tested on: human non-small cell lung carcinoma A549 xenograft; assay: In vivo therapeutic effect against A549 xenograft in nude mice; conditions: A549 xenograft in nude mice; bufalin at 1.6 mg/kg
Experimental: This experiment is to evaluate the in vivo therapeutic effects of compounds bufalin, II1D-06.HCl, II1E-01.HCl and II1B-02.HCl against human-derived lung carcinoma A549 cell xenograft in nude mice.
Solvent control: 4% DMSO & 2% Tween-80 & 5% PEG-400 solution in normal saline
Compounds to be tested: bufalin, II1B-02.HCl, II1E-01.HCl, II1D-06.HCl
Formulating method: the compound was dissolved with DMSO into a stock solution, which was then diluted into an injection with a final DMSO concentration of 4%.
Positive control: Rapamycin Formulating method: it was formulated into an injection with a final DMSO concentration of 4%.
After the tumor size reaches about 200 mm^3, the mice bearing the tumor were grouped randomly into 8 groups according to the tumor size, including the groups of solvent control, positive control rapamycin 5 mg/kg, II1E-01.HCl 2 mg/kg, II1E-01.HCl 4 mg/kg, II1E-01.HCl 6 mg/kg, II1B-02.HCl 4 mg/kg, II1D-06.HCl 4 mg/kg, bufalin 1.6 mg/kg, wherein the dosage selection is based on that the maximum tolerable dosage is 1.6 mg/kg for bufalin and 6 mg/kg for II1E-01.HCl. Rapamycin was administered intravenously once a week (QW) and the other groups were administered intraperitoneally once every other day (QOD). The tumor was weighted after 21 days to calculate the inhibition rate. The equation for calculating inhibition rate (IR) is IR=(WC−WT)/WC×100%, wherein, WC represents the tumor weight of the control group, and WT represents the tumor weight of the treating group.

| Structure (SMILES) | inhibition of growth of human lung carcinoma A549 xenograft, in words |
| --- | --- |
| CCN(CC)CCNC(=O)O[C@H]1CC[C@@]2(C)[C@H](CC[C@@H]3[C@@H]2CC[C@]2(C)[C@@H](c4ccc(=O)oc4)CC[C@]32O)C1.Cl [II1B-02•HCl] | significantly inhibit the growth |

same assay, conditions: A549 xenograft, 4 mg/kg ip QOD, after 21 days

| Structure (SMILES) | Inhibition Rate (%) | Tumor Weight(g) Mean ± SE |
| --- | --- | --- |
| CCN(CC)CCNC(=O)O[C@H]1CC[C@@]2(C)[C@H](CC[C@@H]3[C@@H]2CC[C@]2(C)[C@@H](c4ccc(=O)oc4)CC[C@]32O)C1.Cl [II1B-02•HCl] | 58.34% | 0.7013 ± 0.0707 g |
| C[C@]12CC[C@H](OC(=O)N3CCCNCC3)C[C@H]1CC[C@@H]1[C@@H]2CC[C@]2(C)[C@@H](c3ccc(=O)oc3)CC[C@]12O.Cl [II1D-06•HCl] | 37.15% | 1.0580 ± 0.0866 g |

tested on: human hepatic carcinoma HepG2 xenograft; assay: Therapeutic effect against HepG2 xenograft in nude mice; assay type: in vivo, Balb/c nude mice; conditions: 8 mg/kg iv, QW × 14 d
Experimental: This experiment is to investigate the in vivo inhibitory effect of II1E-01.HCl on growth of human-derived hepatic carcinoma HepG2 cell, human-derived breast carcinoma MDA-MB-231 cell, human-derived lung carcinoma H460 cell, human-derived colon carcinoma HCT-116 cell, human-derived […] MV-4-11 cell xenografts in nude mice.
Formulation of solvent control (5% anhydrous ethanol & 5% aqueous glucose solution): 2.5 mL anhydrous ethanol was added into a 50 mL tube, followed by addition of 47.5 mL 5% glucose solution for injection followed by shaking, and stored at room temperature before use.
Formulation of the preparations of the compounds to be tested: formulations with concentrations of 0.4 mg/mL and 0.6 mg/mL were prepared respectively. An appropriate amount of II1E-01.HCl was weighted and put into a 50 mL tube, followed by addition of corresponding volume of solvent to get the desired concentration and mixed using a vortex mixer. After the solid was dissolved completely, the solution was subpackaged into 4 mL vials and stored at refrigerated condition (2-8° C.) until use.
Experimental animals: Balb/c nude mice (male, six weeks old).
HepG2 cells were in vitro cultured to be proliferated. The cells in the log phase of growth were collected and resuspended in DMEM serum-free medium, and then implanted subcutaneously into the axilla of the right forelimb of nude mice. After 11 days, the tumor size reached about 250 mm^3. The mice bearing the tumor were grouped according to the tumor size into 6 groups, including the group of solvent control, groups of positive controls (Rapamycin 10 mg/kg and Vinorelbine 8 mg/kg), and groups of low (2 mg/kg), middle (4 mg/kg) and high (6 mg/kg) dosages of the testing compound II1E-01.HCl. Each group was administered intravenously at tail. In the solvent control group, the solvent control solution was administered intravenously once every other day (QOD). In the low, middle and high dosage groups of II1E-01.HCl, II1E-01.HCl was administered intravenously once every other day (QOD). In the positive control groups, Rapamycin 10 mg/kg and Vinorelbine 8 mg/kg were administered once a week (QW). The animals were given the drugs for two weeks. In the two week time period, the growth of tumor and the body weight of the mice were observed.
Two weeks after administering (the 25th day after the implantation), the tumor weight and inhibition rate were calculated, and results are listed in Table 5.

| Structure (SMILES) | Tumor Weight(g) Mean ± SE |
| --- | --- |
| CCC1=C[C@@H]2CN(C1)Cc1c([nH]c3ccccc13)[C@@](C(=O)OC)(c1cc3c(cc1OC)N(C)[C@H]1[C@@](O)(C(=O)OC)[C@H](OC(C)=O)[C@]4(CC)C=CCN5CC[C@]31[C@@H]54)C2 [Vinorelbine, reference compound] | 0.4719 ± 0.0660 g |

same assay, conditions: 8 mg/kg iv, QW × 14 d, 8 mg/kg

| Structure (SMILES) | Inhibition Rate (%) |
| --- | --- |
| CCC1=C[C@@H]2CN(C1)Cc1c([nH]c3ccccc13)[C@@](C(=O)OC)(c1cc3c(cc1OC)N(C)[C@H]1[C@@](O)(C(=O)OC)[C@H](OC(C)=O)[C@]4(CC)C=CCN5CC[C@]31[C@@H]54)C2 [Vinorelbine, reference compound] | 38.36% |

tested on: HeLa human cervical carcinoma cell line; assay: In vitro antitumor activity assay (SRB), HeLa; assay type: cell-based; conditions: Table 1, read-out: IC50, inhibitory activity on cell proliferation of HeLa cell line
From the text: HeLa human cervical carcinoma cell line, A-549 human non-small cell lung carcinoma cell line, NCI-H2228 human lung carcinoma cell line, NCI-H460 human lung carcinoma cell line, MDA-MB-231 human breast carcinoma cell line, MCF-7 human breast carcinoma cell line, Bel-7402 human hepatic carcinoma cell line, Hep3B human hepatic carcinoma cell line, QGY-7703 human hepatic carcinoma cell line, MV-4-11 human leukemic cell line, DAUDI human leukemic cell line, Jurkat human leukemic cell line, A498 renal carcinoma cell line, LoVo human colon carcinoma cell line, HCT1116 human colon carcinoma cell line, A431 human skin carcinoma cell line, PANC-1 human pancreatic carcinoma cell line, U87-MG human brain carcinoma cell line, SH-SY5Y human brain carcinoma cell line, RPMI-8226 human bone carcinoma cell line, HT1080 human fibrosarcoma cell line, PC-3 human prostatic carcinoma cell line, AGS human gastric adenocarcinoma cell line, and BGC-823 human gastric adenocarcinoma cell line were purchased from the Cell Bank of the Chinese Academy of Sciences.
The positive control is bufalin (formulated according to the common method), its purity is 98% or more by HPLC-UV and its structure is identified by NMR. The compounds to be tested and the positive control were diluted with normal saline with a concentration gradient of 10^−4 M, 10^−5 M, 10^−6 M, 10^−7 M and 10^−8 M.
According to cell growth rate, tumor cells in the log phase of growth were seeded into 96-well culture plates at 100 μL per well, and allowed to attach for 24 hours, followed by addition of a test compound or positive control at 10 μL per well. For each concentration, the test was carried out in triplicate wells. Solvent control wells with addition of normal saline into cell culture and a blank well containing only cell culture medium but without cells for zeroing were also included. The tumor cells were incubated for 72 hours at 37° C. under 5% CO2, and then the culture medium (RPMI-1640) was removed. The cells were fixed with 10% cool TCA by incubating for 1 h at 4° C., washed with distilled water for 5 times, and dried naturally in the air. A solution of SRB (Sigma) (4 mg/mL) in 1% glacial acetic acid was added at 100 μL per well, and the cells were stained for 15 minutes at room temperature, and the supernatant was discarded. The plates were washed for 5 times with 1% acetic acid, and dried in air. Finally, Tris solution was added at 150 μL per well, and the absorbance (A) was measured at a wavelength of 515 nm using a microplate reader. The growth inhibition on tumor cell proliferation was calculated according to the following equation:
Growth Inhibition (%)=[(Absorbance of negative control−Absorbance of blank)−(Absorbance of sample−Absorbance of blank)]/(Absorbance of negative control−Absorbance of blank)×100%
Drug concentration: 10 μM, 1 μM, 0.1 μM, 10 nM, 1 nM, 0.1 nM.
IC50 was fitted by GraphPad Prism 4.

| Structure (SMILES) | IC50 |
| --- | --- |
| C[C@]12CC[C@H](NC(=O)N3CCNCC3)C[C@H]1CC[C@@H]1[C@@H]2CC[C@]2(C)[C@@H](c3ccc(=O)oc3)CC[C@]12O [III1D-02] | 5.68 nM |

same assay, conditions: read-out: IC50, inhibitory activity on cell proliferation of HeLa cell line

| Structure (SMILES) | IC50 |
| --- | --- |
| CN(C)CCNC(=O)O[C@H]1CC[C@@]2(C)[C@H](CC[C@@H]3[C@@H]2CC[C@]2(C)[C@@H](c4ccc(=O)oc4)CC[C@]32O)C1 [II1B-01] | 1.79 nM |
| CCN(CCN(C)C)C(=O)O[C@H]1CC[C@@]2(C)[C@H](CC[C@@H]3[C@@H]2CC[C@]2(C)[C@@H](c4ccc(=O)oc4)CC[C@]32O)C1 [II1B-04] | 2.17 nM |
| CCNCCN(CC)C(=O)O[C@H]1CC[C@@]2(C)[C@H](CC[C@@H]3[C@@H]2CC[C@]2(C)[C@@H](c4ccc(=O)oc4)CC[C@]32O)C1 [II1B-06] | 1.11 nM |
| CNCCCN(C)C(=O)O[C@H]1CC[C@@]2(C)[C@H](CC[C@@H]3[C@@H]2CC[C@]2(C)[C@@H](c4ccc(=O)oc4)CC[C@]32O)C1 [II1B-07] | 1.15 nM |
| C[C@]12CC[C@H](OC(=O)NCCN)C[C@H]1CC[C@@H]1[C@@H]2CC[C@]2(C)[C@@H](c3ccc(=O)oc3)CC[C@]12O [II1B-09] | 5.72 nM |
| C[C@]12CC[C@H](OC(=O)NCCCN)C[C@H]1CC[C@@H]1[C@@H]2CC[C@]2(C)[C@@H](c3ccc(=O)oc3)CC[C@]12O [II1B-10] | 1.82 nM |
| CN1CCN(C(=O)O[C@H]2CC[C@@]3(C)[C@H](CC[C@@H]4[C@@H]3CC[C@]3(C)[C@@H](c5ccc(=O)oc5)CC[C@]43O)C2)CC1 [II1D-03] | 3.49 nM |
| C[C@]12CC[C@H](OC(=O)N3CCC(O)CC3)C[C@H]1CC[C@@H]1[C@@H]2CC[C@]2(C)[C@@H](c3ccc(=O)oc3)CC[C@]12O [II1D-04] | 38 nM |
| CCOC(=O)CCNC(=O)N1CCN(C(=O)O[C@H]2CC[C@@]3(C)[C@H](CC[C@@H]4[C@@H]3CC[C@]3(C)[C@@H](c5ccc(=O)oc5)CC[C@]43O)C2)CC1 [II1D-07] | 2.6 nM |
| C[C@]12CC[C@H](OC(=O)N3CCN(S(C)(=O)=O)CC3)C[C@H]1CC[C@@H]1[C@@H]2CC[C@]2(C)[C@@H](c3ccc(=O)oc3)CC[C@]12O [II1D-10] | 16.3 nM |
| COC(=O)c1ccccc1S(=O)(=O)N1CCN(C(=O)O[C@H]2CC[C@@]3(C)[C@H](CC[C@@H]4[C@@H]3CC[C@]3(C)[C@@H](c5ccc(=O)oc5)CC[C@]43O)C2)CC1 [II1D-12] | 41.8 nM |
| CC(=O)N1CCN(C(=O)O[C@H]2CC[C@@]3(C)[C@H](CC[C@@H]4[C@@H]3CC[C@]3(C)[C@@H](c5ccc(=O)oc5)CC[C@]43O)C2)CC1 [II1D-14] | 23.1 nM |
| C[C@]12CC[C@H](OC(=O)N3CCN(C(=O)c4ccccc4)CC3)C[C@H]1CC[C@@H]1[C@@H]2CC[C@]2(C)[C@@H](c3ccc(=O)oc3)CC[C@]12O [II1D-16] | 44.6 nM |
| C[C@]12CC[C@H](OC(=O)N3CCNC3)C[C@H]1CC[C@@H]1[C@@H]2CC[C@]2(C)[C@@H](c3ccc(=O)oc3)CC[C@]12O [II1D-19] | 5.8 nM |
| CNC1CCN(C(=O)O[C@H]2CC[C@@]3(C)[C@H](CC[C@@H]4[C@@H]3CC[C@]3(C)[C@@H](c5ccc(=O)oc5)CC[C@]43O)C2)CC1 [II1D-22] | 7.34 nM |
| CCNC1CCN(C(=O)O[C@H]2CC[C@@]3(C)[C@H](CC[C@@H]4[C@@H]3CC[C@]3(C)[C@@H](c5ccc(=O)oc5)CC[C@]43O)C2)CC1 [II1D-23] | 1.12 nM |
| C[C@]12CC[C@H](OC(=O)N3CCC(NCCO)CC3)C[C@H]1CC[C@@H]1[C@@H]2CC[C@]2(C)[C@@H](c3ccc(=O)oc3)CC[C@]12O [II1D-24] | 7.3 nM |
| CN(C)C1CCN(C(=O)O[C@H]2CC[C@@]3(C)[C@H](CC[C@@H]4[C@@H]3CC[C@]3(C)[C@@H](c5ccc(=O)oc5)CC[C@]43O)C2)CC1 [II1D-25] | 5.44 nM |
| C[C@]12CC[C@H](OC(=O)NCC3CCNCC3)C[C@H]1CC[C@@H]1[C@@H]2CC[C@]2(C)[C@@H](c3ccc(=O)oc3)CC[C@]12O [II1E-02] | 4.31 nM |
| CN1CCN(C(=O)N[C@H]2CC[C@@]3(C)[C@H](CC[C@@H]4[C@@H]3CC[C@]3(C)[C@@H](c5ccc(=O)oc5)CC[C@]43O)C2)CC1 [III1D-03] | 41.6 nM |
| C[C@]12CC[C@H](NC(=O)N3CCCNCC3)C[C@H]1CC[C@@H]1[C@@H]2CC[C@]2(C)[C@@H](c3ccc(=O)oc3)CC[C@]12O [III1D-04] | 3.98 nM |
| C[C@]12CC[C@H](NC(=O)NC3CCNCC3)C[C@H]1CC[C@@H]1[C@@H]2CC[C@]2(C)[C@@H](c3ccc(=O)oc3)CC[C@]12O [III1E-01] | 7.2 nM |
| C[C@]12CC[C@H](NC(=O)NCC3CCCCN3)C[C@H]1CC[C@@H]1[C@@H]2CC[C@]2(C)[C@@H](c3ccc(=O)oc3)CC[C@]12O (stereo partly shown) [III1E-02] | 8.68 nM |

Reference: patent US20130005696A1, “BUFADIENOLIDE DERIVATIVES, PREPARING PROCESS THEREOF, COMPOSITION COMPRISING THE SAME AND THE USE THEREOF” (priority 2011, published 2013)
